Data: patent publication US20160368870A1, “OLEFIN SUBSTITUTED OXINDOLES HAVING AMPK ACTIVITY” (BOEHRINGER INGELHEIM INTERNATIONAL GMBH, priority 2013, published 2016)

Key:
[1] = solubility of sodium salt in water; format: physicochemical; conditions: read-out: soluble in water
Protocol: To a stirred solution of acid (compound 67, 1 mmol) in EtOH (25v) was added 0.5M NaOH solution (1 mmol) drop-wise at 30° C. followed by 10V of water. After 30 minutes, excess of ethanol was removed under reduced pressure at 35 deg C. and repeatedly distilled with ethanol two or three times until free solid obtained. The solid was further washed with n-Hexane to obtain compound 67 Compound 67 is soluble in 1 mg/mL water.
The protocol for synthesizing compound 67 was followed to prepare compound 68. Compound 68 is also soluble in 1 mg/mL water.

AMPK beta 1 = target: T1, AMPK beta 1 (Homo sapiens, UniProt Q13131+Q9Y478); assay: in-cell-ELISA for phospho-ACC, Activity beta 1; format: cell-based; conditions: 2 h, serum free DMEM, percentage activation over vehicle control, cell line not given (HepG2 or C2C12 myotubes)
T1 construct: in-cell-ELISA for phospho-ACC (Acetyl-CoA carboxylase 1) in HepG2 cells (liver); endogenous in cells; host or cells: HepG2
Protocol: (§1) Activation of AMPK by various compounds were measured using in-cell-ELISA for phospho-ACC (Acetyl-CoA carboxylase 1) in HepG2 cells (liver) and fully differentiated myotubes (C2C12 cells) grown in 96 well plate. Cells were treated with 1 μM of the molecule for 2 h in serum free DMEM media. After methanol fixation, cells were blocked with BSA followed by addition of anti-phospho ACC antibody (Cell Signaling) and HRP conjugated secondary antibody. Absorbance values taken at 450 nm and were normalized with total DNA (Hoechest stain). Results were expressed as percentage activation over vehicle control.

AMPK beta 2 = target: T2, AMPK beta 2 (Mus musculus, UniProt Q6PAM0+Q8BRK8); assay: in-cell-ELISA for phospho-ACC, Activity beta 2; format: cell-based; conditions: 2 h, serum free DMEM, percentage activation over vehicle control, cell line not given (HepG2 or C2C12 myotubes)
T2 construct: fully differentiated myotubes (C2C12 cells) grown in 96 well plate; endogenous in cells; host or cells: C2C12 myotubes
Protocol: as §1

T1 sequence (Q9Y478 whole entry): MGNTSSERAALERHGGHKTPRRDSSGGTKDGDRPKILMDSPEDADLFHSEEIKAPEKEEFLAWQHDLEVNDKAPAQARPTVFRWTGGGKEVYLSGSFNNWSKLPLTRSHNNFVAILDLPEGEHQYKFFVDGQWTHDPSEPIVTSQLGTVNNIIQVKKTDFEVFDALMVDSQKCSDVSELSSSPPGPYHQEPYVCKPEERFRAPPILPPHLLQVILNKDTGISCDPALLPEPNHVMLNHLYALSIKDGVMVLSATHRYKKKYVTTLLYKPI
T1 sequence (Q13131 whole entry): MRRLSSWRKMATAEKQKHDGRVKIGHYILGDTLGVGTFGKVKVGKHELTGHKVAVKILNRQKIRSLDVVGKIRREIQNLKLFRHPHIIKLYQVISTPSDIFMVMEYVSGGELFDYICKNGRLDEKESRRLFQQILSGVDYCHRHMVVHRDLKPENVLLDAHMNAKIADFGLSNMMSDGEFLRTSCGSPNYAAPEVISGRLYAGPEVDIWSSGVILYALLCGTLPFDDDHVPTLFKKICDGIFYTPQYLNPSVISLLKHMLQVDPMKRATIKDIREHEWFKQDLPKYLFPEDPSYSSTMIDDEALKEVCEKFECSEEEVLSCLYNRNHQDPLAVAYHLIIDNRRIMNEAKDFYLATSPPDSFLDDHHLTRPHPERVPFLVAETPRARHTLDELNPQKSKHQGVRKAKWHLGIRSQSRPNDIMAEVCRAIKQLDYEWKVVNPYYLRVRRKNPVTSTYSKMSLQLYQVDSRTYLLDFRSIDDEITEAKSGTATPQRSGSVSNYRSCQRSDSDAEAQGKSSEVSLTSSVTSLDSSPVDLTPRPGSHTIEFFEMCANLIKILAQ
T1 sequence (P54619 whole entry partner): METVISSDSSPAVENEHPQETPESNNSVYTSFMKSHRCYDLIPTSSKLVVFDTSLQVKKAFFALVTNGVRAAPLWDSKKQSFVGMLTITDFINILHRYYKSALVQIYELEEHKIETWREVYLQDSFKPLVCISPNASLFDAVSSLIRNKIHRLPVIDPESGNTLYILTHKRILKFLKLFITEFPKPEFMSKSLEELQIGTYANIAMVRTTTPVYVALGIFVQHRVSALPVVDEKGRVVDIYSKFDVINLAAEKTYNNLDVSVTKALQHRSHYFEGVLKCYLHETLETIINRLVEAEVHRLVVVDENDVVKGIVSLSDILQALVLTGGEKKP
T2 sequence (Q6PAM0 whole entry): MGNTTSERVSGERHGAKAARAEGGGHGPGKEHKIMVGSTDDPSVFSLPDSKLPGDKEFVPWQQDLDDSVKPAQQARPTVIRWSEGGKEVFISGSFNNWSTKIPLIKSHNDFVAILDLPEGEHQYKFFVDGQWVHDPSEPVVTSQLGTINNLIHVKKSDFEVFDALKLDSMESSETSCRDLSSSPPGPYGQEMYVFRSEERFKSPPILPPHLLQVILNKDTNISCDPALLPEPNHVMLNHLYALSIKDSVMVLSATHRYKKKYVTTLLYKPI
T2 sequence (Q8BRK8 whole entry): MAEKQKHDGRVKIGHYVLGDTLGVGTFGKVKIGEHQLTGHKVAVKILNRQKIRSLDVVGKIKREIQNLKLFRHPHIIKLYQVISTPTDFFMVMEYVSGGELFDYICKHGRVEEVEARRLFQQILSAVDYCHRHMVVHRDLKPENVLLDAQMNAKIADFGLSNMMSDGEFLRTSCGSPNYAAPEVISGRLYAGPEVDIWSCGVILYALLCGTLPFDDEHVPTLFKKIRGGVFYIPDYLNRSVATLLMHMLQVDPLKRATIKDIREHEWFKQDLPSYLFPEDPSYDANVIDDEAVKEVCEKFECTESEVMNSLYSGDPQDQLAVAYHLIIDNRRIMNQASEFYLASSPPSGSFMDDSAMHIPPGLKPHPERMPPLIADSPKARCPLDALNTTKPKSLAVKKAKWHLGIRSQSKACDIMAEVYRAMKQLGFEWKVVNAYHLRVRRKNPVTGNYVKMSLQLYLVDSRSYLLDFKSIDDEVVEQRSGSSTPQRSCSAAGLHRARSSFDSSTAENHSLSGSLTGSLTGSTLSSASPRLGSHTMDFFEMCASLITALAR
T2 sequence (O54950 whole entry partner): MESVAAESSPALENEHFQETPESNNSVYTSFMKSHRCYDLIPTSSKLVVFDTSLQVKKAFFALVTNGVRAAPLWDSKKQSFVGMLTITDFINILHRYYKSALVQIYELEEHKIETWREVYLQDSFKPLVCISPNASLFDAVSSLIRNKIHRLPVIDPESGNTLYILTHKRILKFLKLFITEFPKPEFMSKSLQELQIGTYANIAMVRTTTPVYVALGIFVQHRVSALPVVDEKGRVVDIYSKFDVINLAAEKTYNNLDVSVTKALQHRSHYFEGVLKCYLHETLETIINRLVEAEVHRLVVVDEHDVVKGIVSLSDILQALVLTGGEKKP

Row | Structure (SMILES) | solubility [1] | activation at 1 µM (AMPK beta 1) | Activity beta 2 (at 1 uM) (AMPK beta 2)
1 | O=C(O)Cc1ccc(/C=C2\C(=O)Nc3cc(Cl)c(-c4ccc(-c5ccc(-n6cncn6)cc5)cc4)cc32)cc1 [Example 68, sodium {4-[(E/Z)-{6-chloro-2-oxo-5-[4′-(1H-1,2,4-triazol-1-yl)biphenyl-4-yl]-1,2-dihydro-3H-indol-3-ylidene}methyl]phenyl}acetate] | ≥ 1000 µg/mL | > 40% | –
2 | COc1ccc(C=C2C(=O)Nc3cc(Cl)c(-c4ccc(-c5ccccc5O)cc4)cc32)cc1CC(=O)O [Example 11] | – | > 40% | *** (*** >40)
3 | COc1ccc(/C=C2\C(=O)Nc3cc(Cl)c(-c4ccc(-c5ccc(-n6cncn6)cc5)cc4)cc32)cc1CC(=O)[O-].[Na+] [Example 67, sodium {5-[(E/Z)-{6-chloro-2-oxo-5-[4′-(1H-1,2,4-triazol-1-yl)biphenyl-4-yl]-1,2-dihydro-3H-indol-3-ylidene}methyl]-2-methoxyphenyl}acetate] | ≥ 1000 µg/mL | > 40% | –
4 | COc1ccc(C=C2C(=O)Nc3cc(Cl)c(-c4ccc(-c5ccc(-n6ccnn6)cc5)cc4)cc32)cc1CC(=O)O [Example 56] | – | > 40% | *** (*** >40)
